Target: T1, Regulator of G-protein signaling 7 (Homo sapiens, UniProt P49802)
T1 sequence (P49802 whole entry): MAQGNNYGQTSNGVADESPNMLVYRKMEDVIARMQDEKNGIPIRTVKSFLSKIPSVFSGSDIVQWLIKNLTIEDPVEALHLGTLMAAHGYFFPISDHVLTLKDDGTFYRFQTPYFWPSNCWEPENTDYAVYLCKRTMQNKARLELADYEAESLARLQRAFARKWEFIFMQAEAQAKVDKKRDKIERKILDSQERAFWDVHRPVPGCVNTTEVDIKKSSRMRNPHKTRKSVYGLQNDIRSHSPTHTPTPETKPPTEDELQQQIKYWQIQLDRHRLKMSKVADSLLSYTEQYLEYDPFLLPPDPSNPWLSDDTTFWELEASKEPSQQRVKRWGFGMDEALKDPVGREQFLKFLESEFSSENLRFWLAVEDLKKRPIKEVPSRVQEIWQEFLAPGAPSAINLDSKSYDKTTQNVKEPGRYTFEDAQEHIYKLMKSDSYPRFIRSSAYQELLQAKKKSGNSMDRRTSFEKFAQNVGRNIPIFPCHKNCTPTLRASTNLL
Test: RGS7-Galphao binding modulators, SAR follow-up, biochemical, multiplexed bead flow cytometry, SAR compounds (AID 2296)
Conditions: not given

Q: How did the EC50 turn out when `CCN=c1scc(C)n1N=Cc1ccc(O)c(O)c1O` was run?
A: 0.449 µM

Q: How did the EC50 turn out when `Cc1[nH]n(-c2ccccc2)c(=S)c1C=NCCCN=Cc1c(C)[nH]n(-c2ccccc2)c1=S` was run?
A: 2.2 µM

Q: With `CCN(CC)S(=O)(=O)c1cccc(-c2n[nH]c(=S)n2N=Cc2ccc(C(=O)OC)cc2)c1` [4-[(E)-[3-[3-(diethylsulfamoyl)phenyl]-5-thioxo-1H-1,2,4-triazol-4-yl]iminomethyl]benzoic acid methyl ester] as the compound, how does the EC50 read?
A: > 30 µM

Q: For `Cc1cccc(N2CCN(C(=O)CN3CCc4nc(C)cc(C)c4C3=O)CC2C)c1` (stereo unspecified) [KUC103675N], which EC50 is on record?
A: > 30 µM

Q: `Cc1cccc(N2CCN(C(=O)Cn3sc4nc(C)cc(C)c4c3=O)CC2C)c1` (stereo unspecified) [2-[2-keto-2-[3-methyl-4-(m-tolyl)piperazino]ethyl]-4,6-dimethyl-isothiazolo[5,4-b]pyridin-3-one] was tested. Which EC50 did it give?
A: > 30 µM

Q: `Cc1cc(C)c2c(n1)CCN(CC(=O)N1CCN(c3ccccc3)CC1)C2=O` [2,4-dimethyl-6-[2-oxidanylidene-2-(4-phenylpiperazin-1-yl)ethyl]-7,8-dihydro-1,6-naphthyridin-5-one] was tested. Which EC50 did it give?
A: > 30 µM

Q: Which EC50 does the source give for `NS(=O)(=O)c1ccc(N=NCc2ccc(O)c(O)c2O)c([N+](=O)[O-])c1` [4-[[(E)-(2,3-dihydroxy-4-oxo-1-cyclohexa-2,5-dienylidene)methyl]hydrazo]-3-nitrobenzenesulfonamide] here?
A: 0.141 µM

Q: `O=C(NCCCN1CCOCC1)c1sc2cc([N+](=O)[O-])ccc2c1Cl` [3-chloranyl-N-(3-morpholin-4-ylpropyl)-6-nitro-1-benzothiophene-2-carboxamide] was tested. Which EC50 did it give?
A: > 30 µM

Q: With `Cc1cc(C)c2c(=O)n(CC(=O)N3CCN(c4ccccc4)CC3)ccc2n1` [2,4-dimethyl-6-[2-oxidanylidene-2-(4-phenylpiperazin-1-yl)ethyl]-1,6-naphthyridin-5-one] as the compound, how does the EC50 read?
A: 0.067 µM

Q: `CCOC(=O)c1sc(NC(=O)CSc2nnc(Cc3ccccc3)o2)c(C#N)c1C` [4-cyano-3-methyl-5-[[1-oxo-2-[[5-(phenylmethyl)-1,3,4-oxadiazol-2-yl]thio]ethyl]amino]-2-thiophenecarboxylic acid ethyl ester] was tested. Which EC50 did it give?
A: > 30 µM

Q: How did the EC50 turn out when `CN=c1scc(C)n1N=Cc1ccc(O)c(O)c1O` [(4E)-2,3-dihydroxy-4-[[(4-methyl-2-methylimino-1,3-thiazol-3-yl)amino]methylidene]cyclohexa-2,5-dien-1-one] was run?
A: 0.244 µM

Q: Which EC50 does the source give for `CC(NC(=O)c1sc2cc([N+](=O)[O-])ccc2c1Cl)C(C)(C)C` (stereo unspecified) [3-chloranyl-N-(3,3-dimethylbutan-2-yl)-6-nitro-1-benzothiophene-2-carboxamide] here?
A: > 30 µM

Q: For `CC1(C)OC(=O)C(=Cc2ccc(-c3ccc(S(N)(=O)=O)cc3)o2)C(=O)O1` [SMR000273939], which EC50 is on record?
A: 1.87 µM

Q: `COc1ccc(C2=CC(=O)C=CC2=O)cc1` [MLS001029846] was tested. Which EC50 did it give?
A: 0.356 µM

Q: For `O=c1c2ccccc2sn1-c1ccc(S(=O)(=O)N2CCCC2)cc1` [2-(4-pyrrolidin-1-ylsulfonylphenyl)-1,2-benzothiazol-3-one], which EC50 is on record?
A: > 30 µM

Q: For `Nc1c(C(=O)NCC2CCCO2)sc2nc3c(c(-c4ccco4)c12)CC/C3=C/c1ccco1` (stereo unspecified) [UNM-0000305796], which EC50 is on record?
A: 0.146 µM

Q: With `CC(=O)OCCCNc1cc(Sc2nc3ccccc3s2)c2nonc2c1[N+](=O)[O-]` [MLS000521052] as the compound, how does the EC50 read?
A: > 30 µM

Q: Which EC50 does the source give for `CCC(=O)NC(c1ccc(C)cc1)c1cc([N+](=O)[O-])c2cccnc2c1O` (stereo unspecified) [MLS000553854] here?
A: 4.41 µM

Q: Which EC50 does the source give for `Cc1cccc(N2CCN(C(=O)COc3noc4nc(C)cc(C)c34)CC2C)c1` (stereo unspecified) [2-[(4,6-dimethyl-[1,2]oxazolo[5,4-b]pyridin-3-yl)oxy]-1-[3-methyl-4-(3-methylphenyl)piperazin-1-yl]ethanone] here?
A: > 30 µM

Q: With `O=c1c2ccccc2sn1-c1ccccc1` [2-phenyl-1,2-benzothiazol-3-one] as the compound, how does the EC50 read?
A: > 30 µM

Q: For `Cc1[nH]n(-c2ccccc2)c(=S)c1/C=N/c1cccc([N+](=O)[O-])c1` [(4E)-5-methyl-4-[(3-nitroanilino)methylene]-2-phenyl-2-pyrazoline-3-thione], which EC50 is on record?
A: > 30 µM

Q: With `CCN(CC)S(=O)(=O)c1cccc(C(=O)NN=Cc2ccc(O)c(O)c2O)c1` as the compound, how does the EC50 read?
A: 0.381 µM

Q: For `Cc1cc(Cl)ccc1/N=c1/ssnc1Cl` [MLS000539990], which EC50 is on record?
A: > 30 µM

Q: For `Cc1cccc(N2CCN(C(=O)Cn3ccc4nc(C)cc(C)c4c3=O)CC2C)c1` (stereo unspecified) [2,4-dimethyl-6-[2-[3-methyl-4-(3-methylphenyl)piperazin-1-yl]-2-oxidanylidene-ethyl]-1,6-naphthyridin-5-one], which EC50 is on record?
A: > 30 µM

Q: `O=C(Cc1csc(N2CCOCC2)n1)NN=Cc1ccc(O)c(O)c1O` [SMR000369439] was tested. Which EC50 did it give?
A: 0.421 µM

Q: Which EC50 does the source give for `O=C(COc1ccccc1C(=O)NN=Cc1ccc(O)c(O)c1)NN=Cc1ccc(O)c(O)c1` [N''-[(Z)-(3-hydroxy-4-oxo-1-cyclohexa-2,5-dienylidene)methyl]-2-[2-[[(Z)-(3-hydroxy-4-oxo-1-cyclohexa-2,5-dienylidene)methyl]hydrazo]-2-oxoethoxy]benzohydrazide] here?
A: > 30 µM

Q: For `O=C1C(Cl)=C(N2CCCCC2)C(=O)C(Cl)=C1c1cnc(N2CCCCC2)s1` [MLS000550549], which EC50 is on record?
A: 0.158 µM

Q: Which EC50 does the source give for `Cc1cccc(N2CCN(C(=O)COc3nsc4nc(C)cc(C)c34)CC2C)c1` (stereo unspecified) here?
A: > 30 µM

Q: How did the EC50 turn out when `CN1CCN(C2=C(Cl)C(=O)C(c3cnc(N4CCCCC4)s3)=C(Cl)C2=O)CC1` was run?
A: 0.087 µM

Q: How did the EC50 turn out when `COC(=O)CCC(=O)Nc1sc(C)c(C)c1C(N)=O` [4-[(3-carbamoyl-4,5-dimethyl-2-thienyl)amino]-4-keto-butyric acid methyl ester] was run?
A: > 30 µM

Same assay, conditions: inactive by the depositor's call

Q: With `CCOc1ccccc1-c1c2cc(O)c(=O)cc-2oc2cc(O)c(O)cc12` [MLS000578271] as the compound, how does the EC50 read?
A: 3.57 µM
